Laboratory results as given in US20080145313A1, “Compositions and Methods for the Treatment and Prevention of Neoplastic Disorders” (Genesis Research & Development Corporation Limited, priority 2006, published 2008).

Key:
[1] = tested on: target transcript mRNA in A549 cells; assay: Level of mRNA of target transcript in A549 cells by quantitative RT-PCR (Tables 12 and 13); type: cell-based, human; settings: 24 h post-transfection; for mRNA knockdown of transporter gene target transcript, 0.1 nM: 0.1 nM siRNA; for mRNA knockdown of transporter gene target transcript, 1 nM: 1 nM siRNA
Procedure, shortened: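 Target mRNA was measured by SYBR Green quantitative RT-PCR using random-primed cDNA, normalised to HPRT and Lamin. Samples came from A549 cells 24 h post-transfection with 0.1, 1.0 or 10 nM siRNA.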

A549 cells = assay: Growth inhibition of siRNA-transfected A549 cells, SYBR Green I DNA content; type: cell-based, human; settings: A549 cells, 10 nM siRNA, DNA content 96 hours after transfection, transporter gene targets
Procedure, shortened: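 Growth read-out: cellular DNA quantified with SYBR Green I (485/535 nm) 96 h after transfection, cells frozen, thawed and lysed in PBS/1% Triton X-100, pH 7. Cells (A549, 5×10^3 cells/cm^2) received 10 nM siRNA by RNAiMAX; non-specific siRNA served as control; triplicate wells averaged.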

With “SEQ ID NO: 4952: siRNA targeting ATP6V1B2 (chain 1 TACAACAGGACCTCTGTCAATGGGT; chain 2 UACAACAGGACCUCUGUCAAUGGGU; chemistry not given here; one strand in two spellings)” the “mRNA knockdown of transporter gene target transcript, 0.1 nM” value (from here on “mRNA knockdown … 0.1 nM”) [1] was “− (<50% mRNA knockdown)”, the “mRNA knockdown of transporter gene target transcript, 1 nM” value [1] was “+ (50-70% mRNA knockdown)” and the “Growth Inhibition in A549 cells by 10 nM siRNA” value (“Growth Inhibition in A549 cells” below) (A549 cells) was “− (no growth inhibition)”.

For “SEQ ID NO: 4889: siRNA targeting SLC1A5 (ASCT2) (chain 1 TTGAAGAAGCGGATAAGCAGCTCCC; chain 2 UUGAAGAAGCGGAUAAGCAGCUCCC; Antisense strand given in DNA and RNA notation, chemistry not given here; one strand in two spellings)”, the “mRNA knockdown … 0.1 nM” value [1] was “++ (70-90% mRNA knockdown)”, the “mRNA knockdown of transporter gene target transcript, 1 nM” value [1] was “++ (70-90% mRNA knockdown)” and the “Growth Inhibition in A549 cells” value (A549 cells) was “− (no growth inhibition)”.

For “SEQ ID NO: 4964: siRNA targeting ATP7A (chain 1 TAACCATCATATATATCATCAGCCC; chain 2 UAACCAUCAUAUAUAUCAUCAGCCC; chemistry not given here; one strand in two spellings)”, the “mRNA knockdown … 0.1 nM” value [1] was “− (<50% mRNA knockdown)”, the “mRNA knockdown of transporter gene target transcript, 1 nM” value [1] was “− (<50% mRNA knockdown)” and the “Growth Inhibition in A549 cells” value (A549 cells) was “− (no growth inhibition)”.

In the case of “SEQ ID NO: 4946: siRNA targeting ATP2B4 (PMCA4) (chain 1 AATATCACCAACCACAATCTCAGCC; chain 2 AAUAUCACCAACCACAAUCUCAGCC; chemistry not given here; one strand in two spellings)”, the “mRNA knockdown … 0.1 nM” value [1] was “++ (70-90% mRNA knockdown)”, the “mRNA knockdown of transporter gene target transcript, 1 nM” value [1] was “++ (70-90% mRNA knockdown)” and the “Growth Inhibition in A549 cells” value (A549 cells) was “− (no growth inhibition)”.

In the case of “SEQ ID NO: 4954: siRNA targeting ATP6V1B2 (chain 1 TTTGGATTTCTTTACCAAACCAGCC; chain 2 UUUGGAUUUCUUUACCAAACCAGCC; chemistry not given here; one strand in two spellings)”, the “mRNA knockdown … 0.1 nM” value [1] was “+ (50-70% mRNA knockdown)”, the “mRNA knockdown of transporter gene target transcript, 1 nM” value [1] was “+ (50-70% mRNA knockdown)” and the “Growth Inhibition in A549 cells” value (A549 cells) was “− (no growth inhibition)”.

For “SEQ ID NO: 4958: siRNA targeting ATP6V1E1 (chain 1 AGGAATTGCCTTCTGCACTGCAGCC; chain 2 AGGAAUUGCCUUCUGCACUGCAGCC; chemistry not given here; one strand in two spellings)”, the “mRNA knockdown … 0.1 nM” value [1] was “+ (50-70% mRNA knockdown)” and the “Growth Inhibition in A549 cells” value (A549 cells) was “− (no growth inhibition)”.

With “SEQ ID NO: 4925: siRNA targeting SLC25A1 (CIC) (chain 1 TAATCACATCCAGAGGAGTGTTTCC; chain 2 UAAUCACAUCCAGAGGAGUGUUUCC; chemistry not given here; one strand in two spellings)” the “mRNA knockdown … 0.1 nM” value [1] was “++ (70-90% mRNA knockdown)”, the “mRNA knockdown of transporter gene target transcript, 1 nM” value [1] was “++ (70-90% mRNA knockdown)” and the “Growth Inhibition in A549 cells” value (A549 cells) was “− (no growth inhibition)”.

For “SEQ ID NO: 4920: siRNA targeting SLC9A1 (NHE1) (chain 1 TCAGGTAGTTGTTGATCTTCTGCTC; chain 2 UCAGGUAGUUGUUGAUCUUCUGCUC; chemistry not given here; one strand in two spellings)”, the “mRNA knockdown … 0.1 nM” value [1] was “++ (70-90% mRNA knockdown)”, the “mRNA knockdown of transporter gene target transcript, 1 nM” value [1] was “++ (70-90% mRNA knockdown)” and the “Growth Inhibition in A549 cells” value (A549 cells) was “− (no growth inhibition)”.
